SMILES strings stand for the structures. Like-named read-outs stand apart in the source and are kept apart here.

The target of the experiment is T1, human PAH with the R408W mutation (Homo sapiens, UniProt P00439, R408W).
T1 construct: expressed in transfected cells
T1 sequence (P00439 1-452 R408W): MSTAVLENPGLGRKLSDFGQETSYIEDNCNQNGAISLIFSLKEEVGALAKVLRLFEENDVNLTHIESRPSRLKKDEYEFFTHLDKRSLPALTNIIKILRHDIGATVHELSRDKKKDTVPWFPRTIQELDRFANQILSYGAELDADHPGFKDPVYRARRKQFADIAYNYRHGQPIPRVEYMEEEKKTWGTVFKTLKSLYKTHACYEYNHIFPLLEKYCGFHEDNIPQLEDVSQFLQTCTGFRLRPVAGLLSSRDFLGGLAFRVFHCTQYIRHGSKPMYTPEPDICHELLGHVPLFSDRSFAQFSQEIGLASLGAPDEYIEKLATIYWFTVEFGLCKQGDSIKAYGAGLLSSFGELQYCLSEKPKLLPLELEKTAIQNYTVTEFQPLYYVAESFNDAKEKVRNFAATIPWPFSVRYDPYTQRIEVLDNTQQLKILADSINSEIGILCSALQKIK
Description: Cell Based Phenylalanine Flux Assay. The arrangement: scale not given here. Particulars: A375 cells expressing human R408W PAH, 13C-Tyrosine by LC-MS, average where tested multiple times.

[1] abbreviates: 24 hrs compound incubation, read-out: AC50.
Where [2] appears, read: 24 hrs with compound, read-out: AC50.

As for `O=C(c1ncc(-c2ccccc2)s1)N1CCc2[nH]cnc2[C@H]1c1nc2ccccc2s1` [Example 1189], the AC50 (commonly the concentration giving half of the maximal activity seen) under setting [1] lay in the range of 1 to 5 µM. Take `CC(C)(F)c1ncc(C(=O)N2CCc3[nH]cnc3[C@@H]2c2nc3ccccc3s2)s1` [Example 1464, (R)-(4-(benzo[d]thiazol-2-yl)-6,7-dihydro-1H-imidazo[4,5-c]pyridin-5(4H)-yl)(2-(2-fluoropropan-2-yl)thiazol-5-yl)methanone]: under setting [1], the AC50 lay in the range of 1 to 5 µM.

Turning to `Cn1nccc1C(=O)N1CCc2[nH]cnc2[C@H]1c1nc2c(F)cccc2s1` [Example 1603], the AC50 under setting [1] fell in the range of 1 to 5 µM. Regarding `O=C(c1oc(C2(O)CCC2)nc1C(F)(F)F)N1CCCc2[nH]cnc2[C@H]1c1nc2ccccc2s1` [Example 2137, (S)-(4-(benzo[d]thiazol-2-yl)-7,8-dihydroimidazo[4,5-c]azepin-5(1H,4H,6H)-yl)(2-(1-hydroxycyclobutyl)-4-(trifluoromethyl)oxazol-5-yl)methanone], the AC50 under setting [1] was 1 to 5 µM.

In the case of `Cc1csc(C(=O)N2CCc3[nH]cnc3[C@@H]2c2nc3ccccc3s2)n1` [Example 1043, (R)-(4-(benzo[d]thiazol-2-yl)-6,7-dihydro-1H-imidazo[4,5-c]pyridin-5(4H)-yl)(4-methylthiazol-2-yl)methanone], the AC50 under setting [1] is more than 5 µM. For `O=C(c1nnc(-c2cnn(C3CCC3)c2)o1)N1CCc2[nH]cnc2[C@@H]1c1nc2ccccc2s1` [Example 1827, (R)-(4-(benzo[d]thiazol-2-yl)-6,7-dihydro-1H-imidazo[4,5-c]pyridin-5(4H)-yl)(5-(1-cyclobutyl-1H-pyrazol-4-yl)-1,3,4-oxadiazol-2-yl)methanone], the AC50 under setting [1] is 1 to 5 µM. The same measure, in the same setting: as for `O=C(c1conc1C(F)(F)F)N1CCc2[nH]cnc2[C@@H]1c1nc2c(F)cccc2s1` [Example 1636, (R)-(4-(4-fluorobenzo[d]thiazol-2-yl)-6,7-dihydro-1H-imidazo[4,5-c]pyridin-5(4H)-yl)(3-(trifluoromethyl)isoxazol-4-yl)methanone], the figure is 0.5 to 1 µM. For the compound `CN1CCN(c2nc(C#N)c(C(=O)N3CCc4[nH]cnc4C3c3nc4ccccc4s3)o2)CC1` (centres unmarked), the AC50 entry (24 hrs with compound) was “E, E”.

For the compound `CC(F)(F)c1ncc(C(=O)N2CCc3[nH]cnc3[C@H]2c2nc3ccccc3s2)s1` [Example 1511], the AC50 under setting [1] was less than 0.5 µM. The same measure, in the same setting: under `CC(C)(F)c1ncc(C(=O)N2CCc3[nH]cnc3[C@@H]2c2nc3ccccc3s2)o1` [Example 1456, (R)-(4-(benzo[d]thiazol-2-yl)-6,7-dihydro-1H-imidazo[4,5-c]pyridin-5(4H)-yl)(2-(2-fluoropropan-2-yl)oxazol-5-yl)methanone] stands 1 to 5 µM. Consider `O=C(N1CC[C@@H](c2ccccc2)C1)N1CCc2[nH]cnc2[C@H]1c1nc2ccccc2s1` (single isomer, unassigned), for which, under setting [2], the AC50 fell in the range of 1 to 5 µM. With `O=C(C1CCC1)N1CCc2[nH]cnc2[C@H]1c1nc2ccccc2s1` [Example 1153], the AC50 under setting [1] was less than 0.5 µM. Regarding `O=C(c1oc(N2CCOCC2)nc1C(F)F)N1CCc2[nH]cnc2[C@@H]1c1nc2c(F)cccc2s1` [Example 2026, (R)-(4-(difluoromethyl)-2-morpholinooxazol-5-yl)(4-(4-fluorobenzo[d]thiazol-2-yl)-6,7-dihydro-1H-imidazo[4,5-c]pyridin-5(4H)-yl)methanone], under setting [1], the AC50 was 1 to 5 µM. Take `O=C(c1cnc(-c2ccc(F)cc2)o1)N1CCc2[nH]cnc2[C@H]1c1nc2ccccc2s1` [Example 2117]: the AC50 under setting [1] is less than 0.5 µM. For `Cc1nc(CN(C)C)oc1C(=O)N1CCc2[nH]cnc2[C@H]1c1nc2ccccc2s1` [Example 1693], the AC50 under setting [1] is 0.5 to 1 µM. In the case of `Nc1nc(C(F)(F)F)c(C(=O)N2CCc3[nH]cnc3[C@@H]2c2nc3ccccc3s2)o1` [Example 1534, (R)-(2-amino-4-(trifluoromethyl)oxazol-5-yl)(4-(benzo[d]thiazol-2-yl)-6,7-dihydro-1H-imidazo[4,5-c]pyridin-5(4H)-yl)methanone], under setting [1], the AC50 fell in the range of 0.5 to 1 µM. Still for that read-out and setting: as for `CC(C)(O)c1nc(C(F)F)c(C(=O)N2CCc3[nH]cnc3[C@@H]2c2nc3c(F)cccc3s2)o1` [Example 1774, (R)-(4-(difluoromethyl)-2-(2-hydroxypropan-2-yl)oxazol-5-yl)(4-(4-fluorobenzo[d]thiazol-2-yl)-6,7-dihydro-1H-imidazo[4,5-c]pyridin-5(4H)-yl)methanone], the figure is 1 to 5 µM; as for `O=C(c1ncc(Cl)s1)N1CCc2[nH]cnc2[C@H]1c1nc2cc(F)ccc2s1` [Example 1261], 1 to 5 µM. With `O=C(c1cnn2cc(Cc3ccccc3)ccc12)N1CCc2[nH]cnc2C1c1nc2ccccc2s1` (centres unmarked), the AC50 under setting [2] is more than 5 µM. In the case of `CC(=O)N1CCc2[nH]cnc2C1c1nc2ccccc2[nH]1` (centres unmarked), under setting [2], the AC50 was more than 5 µM. For `O=C(c1oc(-c2ccccn2)nc1C(F)(F)F)N1CCc2[nH]cnc2[C@H]1c1nc2c(F)cccc2s1` [Example 1611, (S)-(4-(4-fluorobenzo[d]thiazol-2-yl)-6,7-dihydro-1H-imidazo[4,5-c]pyridin-5(4H)-yl)(2-(pyridin-2-yl)-4-(trifluoromethyl)oxazol-5-yl)methanone], the AC50 under setting [1] was less than 0.5 µM. Same read-out and setting: as for `COCc1ncc(C(=O)N2CCc3[nH]cnc3[C@@H]2c2nc3ccccc3s2)s1` [Example 1186, (R)-(4-(benzo[d]thiazol-2-yl)-6,7-dihydro-1H-imidazo[4,5-c]pyridin-5(4H)-yl)(2-(methoxymethyl)thiazol-5-yl)methanone], the figure is 1 to 5 µM. `O=C(c1cnn2ccccc12)N1CCc2[nH]cnc2[C@H]1c1nc2ccc(Cl)cc2s1` (single isomer, unassigned): under setting [2], the AC50 lay within 1 to 5 µM. Take `Cn1nccc1C(=O)N1CCc2[nH]cnc2[C@H]1c1nc2ccccc2s1` [Example 1839]: the AC50 under setting [1] is less than 0.5 µM.

In the case of `O=C(c1nnc(-c2ccc(F)cc2)o1)N1CCc2[nH]cnc2[C@H]1c1nc2ccccc2s1` [Example 1369], the AC50 under setting [1] was less than 0.5 µM.

As for `Cc1cc(F)ccc1-c1nnc(C(=O)N2CCc3[nH]cnc3[C@@H]2c2nc3ccccc3s2)o1` [Example 1784, (R)-(4-(benzo[d]thiazol-2-yl)-6,7-dihydro-1H-imidazo[4,5-c]pyridin-5(4H)-yl)(5-(4-fluoro-2-methylphenyl)-1,3,4-oxadiazol-2-yl)methanone], the AC50 under setting [1] is more than 5 µM.

For the compound `O=C(c1ncco1)N1CCc2[nH]cnc2C1c1nc2ccccc2s1` (centres unmarked), the AC50 under setting [2] was 1 to 5 µM. Consider `O=C(c1nnc(-c2ccc(F)cc2F)o1)N1CCc2[nH]cnc2[C@H]1c1nc2ccccc2s1` [Example 1811], for which the AC50 under setting [1] is less than 0.5 µM.

Regarding `Cn1nc(CO)cc1C(=O)N1CCc2[nH]cnc2C1c1nc2c(F)cccc2s1` (centres unmarked), the AC50 under setting [2] was 1 to 5 µM.

`c1ccc2[nH]c([C@H]3c4nc[nH]c4CCN3Cc3nccs3)nc2c1` (single isomer, unassigned) [Example 926]: under setting [1], the AC50 was more than 5 µM. Still for that read-out and setting: under `Cn1ncc(Cl)c1C(=O)N1CCc2[nH]cnc2[C@@H]1c1nc2c(F)cccc2s1` [Example 1734, (R)-(4-chloro-1-methyl-1H-pyrazol-5-yl)(4-(4-fluorobenzo[d]thiazol-2-yl)-6,7-dihydro-1H-imidazo[4,5-c]pyridin-5(4H)-yl)methanone] stands 0.5 to 1 µM; under `Cn1cc(-c2nnc(C(=O)N3CCc4[nH]cnc4[C@@H]3c3nc4ccccc4s3)o2)cn1` [Example 1461, (R)-(4-(benzo[d]thiazol-2-yl)-6,7-dihydro-1H-imidazo[4,5-c]pyridin-5(4H)-yl)(5-(1-methyl-1H-pyrazol-4-yl)-1,3,4-oxadiazol-2-yl)methanone], 1 to 5 µM.

These data come from patent US20250171438A1 (Agios Pharmaceuticals, Inc., priority 2022, published 2025).
